Measured values taken from patent publication US20230399289A1, “ITACONIC ACID DERIVATIVES” (Sitryx Therapeutics Limited, priority 2020, published 2023).
Where a name gives a salt, the structure may show the parent alone.

Legend:
hepatocytes [1] = assay: Hepatocyte stability assay, mouse; format: in vitro ADME; conditions: 10 μM compound, 0.5×10^6 cells/mL, 60 min
Description: (§1) Defrosted cryo-preserved hepatocytes (viability>70%) may be used to determine the metabolic stability of a compound via calculation of intrinsic clearance (Clint; a measure of the removal of a compound from the liver in the absence of blood flow and cell binding). Clearance data are particularly important for in vitro work as they can be used in combination with in vivo data to predict the half-life and oral bioavailability of a drug.
(§2) The metabolic stability in hepatocytes assay involves a time-dependent reaction using both positive and negative controls. The cells were pre-incubated at 37° C. and spiked with test compound (and positive control); samples were taken at pre-determined time intervals and analysed to monitor the change in concentration of the initial drug compound over 60 minutes. A buffer incubation reaction (with no hepatocytes present) acted as a negative control and two cocktail solutions, containing compounds with known high and low clearance values (verapamil/7-hydroxycoumarin and propranolol/diltiazem), acted as positive controls. • 1. The assay was run with a cell concentration of 0.5×10^6 cells/mL in Leibovitz buffer. • 2. All compounds and controls were run in duplicate. • 3. Compound concentration was 10 μM. • 4. All compounds and controls were incubated with both cells and buffer to show turnover was due to hepatic metabolism. • 5. All wells on the incubation plate had 326.7 μL of either cells or buffer added. • 6. Prior to assay, cell and buffer-only incubation plates were preincubated for 10 mins at 37° C. • 7. The assay was initiated by adding compounds, 3.3 μL of 1 mM in 10% DMSO-90% Buffer; final DMSO concentration is 0.1%. • 8. Samples were taken at regular timepoints (0, 5, 10, 20, 40, 60 min) until 60 mins. • 9. Sample volume was 40 μL and was added to 160 μL of crash solvent (acetonitrile with internal standard) and stored on ice. • 10. At the end of the assay, the crash plates were centrifuged at 3500 rpm for 20 mins at 4° C. • 11. 80 μL of clear supernatant was removed and mixed with 80 μL of deionised water before being analysed by LC-MS/MS.
(§3) Raw LC-MS/MS data was exported to, and analysed in, Microsoft Excel for determination of intrinsic clearance. The percentage remaining of a compound was monitored using the peak area of the initial concentration as 100%. Intrinsic clearance and half-life values were calculated using a graph of the natural log of percentage remaining versus the time of reaction in minutes. Half-life (min) and intrinsic clearance (Clint in μL min^−1 10^−6 cells) values were calculated using the gradient of the graph (the elimination rate constant, k) and Equations 1 and 2.

hepatocytes [2] = assay: Hepatocyte stability assay, human; format: in vitro ADME; conditions: 10 μM compound, 0.5×10^6 cells/mL, 60 min
Description: as §1, §2, §3

[3] = test system: IL-6 cytokine output from THP-1 cells; assay: THP-1 AlphaLISA IL-6 cytokine assay; format: cell-based; conditions: Homo sapiens, THP-1, differentiated THP-1 cells, LPS 24 hr then Nigericin 1 hour
Method: (§4) Measuring Inhibitory Effects on IL-1β and IL-6 Cytokine Output from THP-1s
(§5) The cytokine inhibition profiles of compounds of formula (I) were determined in a differentiated THP-1 cell assay. All assays were performed in RPMI-1640 growth medium (Gibco), supplemented with 10% fetal bovine serum (FBS; Gibco), 1% penicillin-streptomycin and 1% sodium pyruvate unless specified otherwise. The IL-1β and IL-6 cytokine inhibition assays were each run in a background of differentiated THP-1 cells as described below. All reagents described were from Sigma-Aldrich unless specified otherwise. Compounds were prepared as 10 mM DMSO stocks.
(§6) THP-1 cells were expanded as a suspension up to 80% confluence in appropriate growth medium. Cells were harvested, suspended, and treated with an appropriate concentration of phorbol 12-myristate 13-acetate (PMA) over a 72 hr period (37° C./5% CO2).
(§7) Following 72 hrs of THP-1 cell incubation, cellular medium was removed and replaced with fresh growth media containing 1% of FBS. Working concentrations of compounds were prepared separately in 10% FBS treated growth medium and pre-incubated with the cells for 30 minutes (37° C./5% CO2). Following the 30 minute compound pre-incubation, THP-1s were treated with an appropriate concentration of LPS and the THP-1s were subsequently incubated for a 24 hr period (37° C./5% CO2). An appropriate final concentration of Nigericin was then dispensed into the THP-1 plates and incubated for 1 hour (37° C./5% CO2) before THP-1 supernatants were harvested and collected in separate polypropylene 96-well holding plates.
(§8) Reagents from each of the […] and IL-6 commercial kits (Perkin Elmer) were prepared and run according to the manufacturer's instructions. Subsequently, fluorescence signal detection in a microplate reader was measured (EnVision® Multilabel Reader, Perkin Elmer).
(§9) Percentage inhibition was calculated per cytokine by normalising the sample data to the high and low controls used within each plate (+/−LPS respectively). Percentage inhibition was then plotted against compound concentration and the 50% inhibitory concentration (IC50) was determined from the resultant concentration-response curve.

[4] = test system: IL-1β cytokine output from THP-1 cells; assay: THP-1 AlphaLISA IL-1β cytokine assay; format: cell-based; conditions: Homo sapiens, THP-1, differentiated THP-1 cells, LPS 24 hr then Nigericin 1 hour
Method: as §4, §5, §6, §7, §8, §9

[5] = Hepatocyte stability assay, mouse; format: in vitro ADME; conditions: cryopreserved hepatocytes, 10 μM compound, 0.5×10^6 cells/mL, 60 min, read-out: T½
Description: as §1, §2, §3

[6] = Hepatocyte stability assay, human; format: in vitro ADME; conditions: cryopreserved hepatocytes, 10 μM compound, 0.5×10^6 cells/mL, 60 min, read-out: T½
Description: as §1, §2, §3

[7] = test system: NRF2 (nuclear factor erythroid 2-related factor 2); assay: NRF2 +/−GSH activation assay (DiscoverX PathHunter NRF2 translocation kit, U2OS cells); format: cell-based; conditions: Homo sapiens; for Emax: U2OS, normalised to dimethyl fumarate high control; for EC50: U2OS PathHunter cells, 6 hours
[8] = +GSH, 30 minute compound-GSH pre-incubation

| SMILES | CIint (hepatocytes [1]) | CIint (hepatocytes [2]) | IC50 [3] | IC50 [4] | other results |
| --- | --- | --- | --- | --- | --- |
| C=C(CC(=O)OCCCCCCCC)C(=O)O [4-octyl itaconate, reference compound] | 351 μL min^−1 10^−6 cells | 401 μL min^−1 10^−6 cells | – | – | T½ (hepatocytes [1]): 4 min; T½ (hepatocytes [2]): 4 min |
| C=C(CC(=O)OC1(Cc2ccc(C(F)(F)F)cc2)CC1)C(=O)OCC(=O)O [Example 27, 2-((2-methylene-4-oxo-4-(1-(4-(trifluoromethyl)benzyl)cyclopropoxy)butanoyl)oxy)acetic acid] | – | – | 14.1 µM | 16.4 µM | – |
| C=C(CC(=O)OC1(c2ccc(C(F)(F)F)c(Cl)c2)CCC1)C(=O)OCC(=O)O [Example 16, 2-((4-(1-(3-chloro-4-(trifluoromethyl)phenyl)cyclobutoxy)-2-methylene-4-oxobutanoyl)oxy)acetic acid] | 61 μL min^−1 10^−6 cells | 7 μL min^−1 10^−6 cells | – | 4.9 µM | half-life at 10 μM [5]: 25 min; half-life at 10 μM [6]: 209 min |
| C=C(CC(=O)OC1(c2cc(Cl)c(OC)c(Cl)c2)CCC1)C(=O)OCC(=O)O [Example 18, 2-((4-(1-(3,5-dichloro-4-methoxyphenyl)cyclobutoxy)-2-methylene-4-oxobutanoyl)oxy)acetic acid] | 58 μL min^−1 10^−6 cells | 13 μL min^−1 10^−6 cells | – | 9.9 µM | half-life at 10 μM [5]: 26 min; half-life at 10 μM [6]: 109 min |
| C=C(CC(=O)OC1(c2cc(F)c(F)c(F)c2)CCC1)C(=O)OCC(=O)O [Example 14, 2-((2-methylene-4-oxo-4-(1-(3,4,5-trifluorophenyl)cyclobutoxy)butanoyl)oxy)acetic acid] | – | – | – | 19.9 µM | – |
| C=C(CC(=O)OC1(c2cc(Cl)c(F)c(Cl)c2)CCC1)C(=O)OCC(=O)O [Example 17, 2-((4-(1-(3,5-dichloro-4-fluorophenyl)cyclobutoxy)-2-methylene-4-oxobutanoyl)oxy)acetic acid] | 73 μL min^−1 10^−6 cells | 8 μL min^−1 10^−6 cells | – | 4.9 µM | half-life at 10 μM [5]: 21 min; half-life at 10 μM [6]: 188 min |
| C=C(CC(=O)OC1(c2ccc(C(F)(F)F)cc2)CCC1)C(=O)O[C@H](CC(=O)O)C(F)(F)F [Example 23, (R)-4,4,4-trifluoro-3-((2-methylene-4-oxo-4-(1-(4-(trifluoromethyl)phenyl)cyclobutoxy)butanoyl)oxy)butanoic acid] | – | – | 1.2 µM | 1.5 µM | Emax ([7]; +GSH): 54%; Emax ([7]; −GSH): 141%; EC50 [7, 8]: 5.3 µM; EC50 ([7]; −GSH): 2.3 µM |
| C=C(CC(=O)OC1(c2ccc(C)c(Cl)c2)CCC1)C(=O)OCC(=O)O [Example 20, 2-((4-(1-(3-chloro-4-methylphenyl)cyclobutoxy)-2-methylene-4-oxobutanoyl)oxy)acetic acid] | 77 μL min^−1 10^−6 cells | 15 μL min^−1 10^−6 cells | – | 8.7 µM | half-life at 10 μM [5]: 26 min; half-life at 10 μM [6]: 84 min |
| C=C(CC(=O)OC1(c2ccc(C(F)(F)F)cc2)CCCC1)C(=O)OCC(=O)O [Example 25, 2-((2-methylene-4-oxo-4-((1-(4-(trifluoromethyl)phenyl)cyclopentyl)oxy)butanoyl)oxy)acetic acid] | – | – | 15.9 µM | 17.4 µM | – |
| C=C(CC(=O)OC1(c2cc(Cl)cc(C(F)(F)F)c2)CCC1)C(=O)OCC(=O)O [Example 15, 2-((4-(1-(3-chloro-5-(trifluoromethyl)phenyl)cyclobutoxy)-2-methylene-4-oxobutanoyl)oxy)acetic acid] | – | – | – | 8.6 µM | – |
| C=C(CC(=O)OC1(c2cc(F)c(C(F)(F)F)c(F)c2)CCC1)C(=O)OCC(=O)O [Example 19, 2-((4-(1-(3,5-difluoro-4-(trifluoromethyl)phenyl)cyclobutoxy)-2-methylene-4-oxobutanoyl)oxy)acetic acid] | 66 μL min^−1 10^−6 cells | 8 μL min^−1 10^−6 cells | – | 4.4 µM | half-life at 10 μM [5]: 23 min; half-life at 10 μM [6]: 187 min |
| C=C(CC(=O)OC)C(=O)OC [dimethyl itaconate, reference compound] | – | – | > 100 µM | > 100 µM | – |
| C=C(CC(=O)OC1(c2ccc(C(F)(F)F)cc2)CC(F)(F)C1)C(=O)OCC(=O)O [Example 31, 2-((4-(3,3-difluoro-1-(4-(trifluoromethyl)phenyl)cyclobutoxy)-2-methylene-4-oxobutanoyl)oxy)acetic acid] | – | – | 16.5 µM | 14.4 µM | Emax ([7]; +GSH): 108%; Emax ([7]; −GSH): 182%; EC50 [7, 8]: 30.8 µM; EC50 ([7]; −GSH): 21.7 µM |
| COC(=O)/C=C/C(=O)OC [dimethyl fumarate, reference compound] | – | – | – | – | Emax ([7]; +GSH): 19%; Emax ([7]; −GSH): 100%; EC50 [7, 8]: > 100 µM; EC50 ([7]; −GSH): 6 µM |
| C=C(CC(=O)OC1(Cc2ccc(Cl)cc2)CCC1)C(=O)OCC(=O)O [Example 24, 2-((4-(1-(4-chlorobenzyl)cyclobutoxy)-2-methylene-4-oxobutanoyl)oxy)acetic acid] | – | – | 11.3 µM | 14.5 µM | Emax ([7]; +GSH): 119%; Emax ([7]; −GSH): 194%; EC50 [7, 8]: 28.3 µM; EC50 ([7]; −GSH): 29.6 µM |
| C=C(CC(=O)OC1(c2ccc(-c3ccc(F)cc3)cc2)CCC1)C(=O)OCC(=O)O [Example 26, 2-((4-(1-(4′-fluoro-[1,1′-biphenyl]-4-yl)cyclobutoxy)-2-methylene-4-oxobutanoyl)oxy)acetic acid] | – | – | 3.9 µM | 46.9 µM | – |
| C=C(CC(=O)OC1(C#Cc2ccc(C(F)(F)F)cc2)CCC1)C(=O)OCC(=O)O [Example 28, 2-((2-methylene-4-oxo-4-(1-((4-(trifluoromethyl)phenyl)ethynyl)cyclobutoxy)butanoyl)oxy)acetic acid] | – | – | 3.3 µM | 11.3 µM | – |
| C=C(CC(=O)OC1(c2ccc(C(F)(F)F)cc2)CCC1)C(=O)O[C@@H](CC(=O)O)C(F)(F)F [Example 21, (S)-4,4,4-trifluoro-3-((2-methylene-4-oxo-4-(1-(4-(trifluoromethyl)phenyl)cyclobutoxy)butanoyl)oxy)butanoic acid] | – | – | 0.9 µM | 1 µM | Emax ([7]; +GSH): 53%; Emax ([7]; −GSH): 170%; EC50 [7, 8]: 5.7 µM; EC50 ([7]; −GSH): 1.7 µM |
| C=C(CC(=O)OC1(c2ccc(C(F)(F)F)cc2)COC1)C(=O)OCC(=O)O [Example 29, 2-((2-methylene-4-oxo-4-((3-(4-(trifluoromethyl)phenyl)oxetan-3-yl)oxy)butanoyl)oxy)acetic acid] | – | – | 45.2 µM | 43.2 µM | – |
